The values below come from ChEMBL document CHEMBL3414511, “Synthesis of a novel class of substituted benzothiophene or benzofuran derivatives as BMP-2 up-regulators and evaluation of the BMP-2-up-regulating effects in vitro and the effects on glucocorticoid-induced osteoporosis in rats” (Eur J Med Chem, 2015).

Each structure is given as a SMILES string. Activity calls are given as the source filed them. The calls are words filed in the database; no cut-off is given here.

The subject of data set [1] is Rattus norvegicus. The experiment in a line: Toxicity in glucocorticoid-induced Wistar rat osteoporosis model assessed as neutrophilic granulocytes level at 0.05 ug/kg/day, po administered six times a week for 3 months (reference value: 31.95 +/- 8.33%). In kind it is organism-based. To be noted: in vivo, 5e-05 mg/kg.
Data set [2] concerns Rattus norvegicus. In words: Toxicity in glucocorticoid-induced Wistar rat osteoporosis model assessed as triglycerides level at 0.05 ug/kg/day, po administered six times a week for 3 months (reference value: 1.13 +/- 0.69 mmol/L). In kind it is organism-based. The settings on record: in vivo, 5e-05 mg/kg.
For data set [3], the system named is Rattus norvegicus. In words: Antiosteoporotic activity in glucocorticoid-induced Wistar rat osteoporosis model assessed as increase in trabecula area at 0.05 ug/kg/day, po administered six times a week for 3 months by toluidine blue staining-based light microscopic analysis relative to dexamethasone. In kind it is functional, organism-based.
The test system of data set [4] is Rattus norvegicus. In words: Toxicity in glucocorticoid-induced Wistar rat osteoporosis model assessed as alanine transaminase level at 0.05 ug/kg/day, po administered six times a week for 3 months (reference value: 43.73 +/- 36.21 U/L). Type of data set: organism-based. To be noted: in vivo, 5e-05 mg/kg.
In data set [5] the test system is Rattus norvegicus. In words: Antiosteoporotic activity in glucocorticoid-induced Wistar rat osteoporosis model assessed as trabecular bone volume at 0.05 ug/kg/day, po administered six times a week for 3 months by fluorescence assay (reference value: 33.09 +/- 5.15%). Type of data set: functional, Trabecula.
The subject of data set [6] is Rattus norvegicus. The experiment in a line: Antiosteoporotic activity in glucocorticoid-induced Wistar rat osteoporosis model assessed as trabecula resorption surface at 0.05 ug/kg/day, po administered six times a week for 3 months by fluorescence assay (reference value: 7.22 +/- 2.04%). Type of data set: functional.
Data set [7] concerns Rattus norvegicus. The experiment in a line: Antiosteoporotic activity in glucocorticoid-induced Wistar rat osteoporosis model assessed as increase in trabecula connectivity at 0.05 ug/kg/day, po administered six times a week for 3 months by toluidine blue staining-based light microscopic analysis relative to dexamethasone. In kind it is functional, organism-based.
Data set [8] relates to Rattus norvegicus. The experiment in a line: Antiosteoporotic activity in glucocorticoid-induced Wistar rat osteoporosis model assessed as increase in trabecula number at 0.05 ug/kg/day, po administered six times a week for 3 months by toluidine blue staining-based light microscopic analysis relative to dexamethasone. Type of data set: functional, organism-based.
Data set [9] concerns Rattus norvegicus. In words: Toxicity in glucocorticoid-induced Wistar rat osteoporosis model assessed as lymph level at 0.05 ug/kg/day, po administered six times a week for 3 months (reference value: 50.35 +/- 12.96%). Type of data set: organism-based. To be noted: in vivo, 5e-05 mg/kg.
The subject of data set [10] is Rattus norvegicus. In words: Toxicity in glucocorticoid-induced Wistar rat osteoporosis model assessed as white blood cells at 0.05 ug/kg/day, po administered six times a week for 3 months (reference value: 6.28 +/- 2.78 x 10^9/L). To be noted: in vivo, 5e-05 mg/kg. Type of data set: organism-based.
The test system of data set [11] is Rattus norvegicus. In words: Toxicity in glucocorticoid-induced Wistar rat osteoporosis model assessed as aspartate transaminase level at 0.05 ug/kg/day, po administered six times a week for 3 months (reference value: 177.55 +/- 116.98 U/L). Type of data set: organism-based. To be noted: in vivo, 5e-05 mg/kg.
The test system of data set [12] is Rattus norvegicus. The experiment in a line: Antiosteoporotic activity in glucocorticoid-induced Wistar rat osteoporosis model assessed as mineral apposition rate at 0.05 ug/kg/day, po administered six times a week for 3 months by fluorescence assay (reference value: 1.06 +/- 0.27 micrometer/day). Type of data set: functional.
The subject of data set [13] is Rattus norvegicus. The experiment in a line: Antiosteoporotic activity in glucocorticoid-induced Wistar rat osteoporosis model assessed as increase in trabecula thickness at 0.05 ug/kg/day, po administered six times a week for 3 months by toluidine blue staining-based light microscopic analysis relative to dexamethasone. In kind it is functional, organism-based.
The test system of data set [14] is Rattus norvegicus. In words: Antiosteoporotic activity in glucocorticoid-induced Wistar rat osteoporosis model assessed as trabecula formation surface at 0.05 ug/kg/day, po administered six times a week for 3 months by fluorescence assay (reference value: 7.82 +/- 2.46%). In kind it is functional.

Take `C=C1/C(=C\C=C2/CCC[C@]3(C)[C@@H]([C@H](C)CCCC(C)C)CC[C@@H]23)C[C@@H](O)C[C@@H]1O` [ALFACALCIDOL]: the Activity is given as 48.13% in the data set on Rattus norvegicus [1]; 0.51 mmol/L in the data set on Rattus norvegicus [2]; 30.64 U/L in the data set with Rattus norvegicus [4]; 28.54% with Rattus norvegicus [5]; 8.15% in the data set on Rattus norvegicus [6]; 34.83% in the data set with Rattus norvegicus [9]. For the same compound, the Activity came to 3.42 ×10⁹ /L with Rattus norvegicus [10], 109.73 U/L in the data set on Rattus norvegicus [11], 1.05 micrometer/day with Rattus norvegicus [12] and 6.72% with Rattus norvegicus [14]. In addition, the outcome with Rattus norvegicus [3], with Rattus norvegicus [7], in the data set on Rattus norvegicus [8] and in the data set with Rattus norvegicus [13] was Active.
